# According to the supplement of paper PMC10307832:
# Legend:
# Assay in all cases: relative viability (nuclei count vs DMSO), 5 days (fraction); higher = more cells survive
# Masitinib + Navitoclax = compound: Cc1ccc(NC(=O)c2ccc(CN3CCN(C)CC3)cc2)cc1Nc1nc(-c2cccnc2)cs1 [Masitinib] + CC1(C)CCC(c2ccc(Cl)cc2)=C(CN2CCN(c3ccc(C(=O)NS(=O)(=O)c4ccc(N[C@H](CCN5CCOCC5)CSc5ccccc5)c(S(=O)(=O)C(F)(F)F)c4)cc3)CC2)C1 [Navitoclax] (partner 0.5 µM)
# Method in brief: (§1)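 Lung cancer cell lines, seeded in 1536-well plates, were treated the following day by pin tool with a single drug or with five library-drug doses (not always all listed) in √10 steps on top of a fixed anchor-drug dose. Cells were fixed and nuclei stained in one step after 5 days, and nuclei were counted. Relative viability is the nuclei count for treated wells divided by that for vehicle wells, reported as medians of duplicate plates.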
# [1] = compound: CC1=CC(=CC=C1)NC2=NC(=CS2)C3=CC=NC=C3 + O=C(CCCCCCC(=O)Nc1ccccc1)NO [Vorinostat] (partner 1 µM)
# Method in brief: as §1
# Masitinib + Linsitinib = compound: Cc1ccc(NC(=O)c2ccc(CN3CCN(C)CC3)cc2)cc1Nc1nc(-c2cccnc2)cs1 [Masitinib] + C[C@]1(O)C[C@@H](c2nc(-c3ccc4ccc(-c5ccccc5)nc4c3)c3c(N)nccn32)C1 [Linsitinib] (partner 1 µM)
# Method in brief: as §1
# [2] = compound: CC1=CC(=CC=C1)NC2=NC(=CS2)C3=CC=NC=C3 + COc1cccc2cc(-c3nc([C@H]4CC[C@H](C(=O)O)CC4)n4ncnc(N)c34)[nH]c12 [OSI-027] (partner 0.5 µM)
# Method in brief: as §1
Cell Line,relative viability (Masitinib + Navitoclax; first compound 0.01 µM),relative viability (Masitinib + Navitoclax; first compound 0.03162 µM),relative viability (Masitinib + Navitoclax; first compound 0.1 µM),relative viability (Masitinib + Navitoclax; first compound 0.3162 µM),relative viability (Masitinib + Navitoclax; first compound 1 µM),relative viability ([1]; first compound 0.08 µM),relative viability ([1]; first compound 0.253 µM),relative viability ([1]; first compound 0.8 µM),relative viability ([1]; first compound 2.53 µM),relative viability ([1]; first compound 8 µM),relative viability (Masitinib + Linsitinib; first compound 0.01 µM),relative viability (Masitinib + Linsitinib; first compound 0.03162 µM),relative viability (Masitinib + Linsitinib; first compound 0.1 µM),relative viability (Masitinib + Linsitinib; first compound 0.3162 µM),relative viability (Masitinib + Linsitinib; first compound 1 µM),relative viability ([2]; first compound 0.253 µM),relative viability ([2]; first compound 0.8 µM),relative viability ([2]; first compound 2.53 µM),relative viability ([2]; first compound 8 µM),relative viability ([2]; first compound 0.08 µM)
HCC-78,0.722,0.822,0.839,0.77,0.763,0.513,0.468,0.477,0.41,0.481,0.417,0.423,0.55,0.557,0.486,0.371,0.392,0.308,0.435,–
HCC-366,1.04,1.03,1.2,1.09,1,0.248,0.172,0.255,0.186,0.198,0.728,0.521,0.841,0.753,0.55,0.744,0.959,0.833,0.461,0.723
HCC-827,0.924,0.996,1.01,0.942,1.01,0.778,0.772,0.819,0.651,0.653,1.03,0.969,0.976,0.935,0.935,0.755,0.693,0.809,0.732,0.702
HOP-62,0.93,1.02,0.76,1.11,1.05,0.531,0.605,0.591,0.584,0.595,0.916,0.978,0.973,0.917,0.833,0.774,0.849,0.786,0.729,0.714
IA-LM,0.733,0.699,1.02,0.689,1.01,0.884,0.954,0.942,–,0.78,0.365,0.541,0.557,0.504,0.451,–,–,–,–,–
LC-2-ad,0.486,0.412,0.667,0.485,0.408,0.607,0.647,0.688,0.624,0.658,0.876,0.83,0.791,0.855,0.833,–,0.74,0.79,0.728,0.785
LCLC-97TM1,0.35,0.42,0.0511,0.639,0.355,0.558,0.741,0.623,0.601,0.988,0.157,0.151,0.197,0.144,0.181,0.43,0.546,0.513,0.692,0.413
LCLC-103H,–,–,–,–,–,0.635,0.69,0.679,0.667,0.567,0.796,1.02,0.859,1.01,1.08,0.448,0.422,0.462,0.342,0.389
NCI-H358,–,–,–,–,–,0.633,0.653,0.518,0.662,0.624,0.86,0.877,0.715,0.809,0.623,0.821,0.715,0.82,0.728,0.674
NCI-H522,–,–,–,–,–,0.91,1.03,1.01,0.924,0.849,–,–,–,–,–,0.649,0.737,0.735,0.775,0.71
NCI-H650,–,–,–,–,–,0.414,0.429,0.395,0.624,0.599,0.796,0.752,0.896,0.981,0.806,0.511,0.544,0.475,0.578,0.509
NCI-H661,–,–,–,–,–,0.764,0.753,0.747,0.718,0.666,0.653,0.569,0.577,0.584,0.428,0.653,0.687,0.7,0.578,0.621
NCI-H1299,1.08,1.03,1.04,1.04,1.03,–,–,–,–,–,0.778,1.02,1.06,1.09,0.879,–,–,–,–,–
NCI-H1563,–,–,–,–,–,–,–,–,–,–,1.17,1.09,1.19,1.26,1.17,0.775,0.842,0.779,0.697,0.723
NCI-H1623,–,–,–,–,–,–,–,–,–,–,–,–,–,–,–,0.359,0.391,0.405,0.384,0.444
NCI-H1648,–,–,–,–,–,0.279,0.455,0.548,0.422,0.349,–,–,–,–,–,0.277,0.276,0.258,0.255,0.259
NCI-H1650,1.25,0.981,1.15,1.13,1.14,0.587,0.533,0.489,0.51,0.404,–,–,–,–,–,0.508,0.625,0.472,0.227,0.619
NCI-H1703,0.748,0.898,0.464,0.29,0.243,–,–,–,–,–,0.667,1.02,0.479,0.23,0.187,–,–,–,–,–
NCI-H1792,0.563,0.239,0.643,0.65,0.673,–,–,–,–,–,0.504,0.224,0.533,0.454,0.529,–,0.613,0.443,0.401,0.541
NCI-H2170,0.683,0.486,0.546,0.577,0.559,0.695,0.901,0.731,0.697,0.599,–,–,–,–,–,0.646,0.583,0.537,0.651,0.733
NCI-H2342,–,–,–,–,–,0.749,0.753,0.721,0.716,0.745,–,–,–,–,–,0.588,0.65,0.5,0.607,0.623
SW 900,–,–,–,–,–,0.433,0.357,0.516,0.33,0.188,–,–,–,–,–,0.539,0.549,0.356,0.355,0.443
